For one assay, the system named is human endothelial cells. Briefly: Human endothelial cell monolayer survival and repopulation following cryopreservation (Calcein-AM assay). It counts as cell-based. The note with it: for post-thaw viability: P/P conditioning, U10 and U5G10 CP solutions vs matched non-treated samples; for day 1 survival increase over non-treated samples: U10G10. The protocol: A series of cryopreservation experiments was conducted on human endothelial and smooth muscle cell suspensions and monolayers to assess the performance of four (4) commercially available cryopreservation solutions: DP6, VS55, VS83, and M22, as well as nine (9) additional solutions: […] Eurocollins (EC) solution was included as a negative control, i.e., no cryoprotective agent (CPA) control, while media+10% DMSO ([…]) is a typical solution (10% DMSO) used in standard controlled rate cryopreservation protocols known to the skilled individual. Unisol is representative of the class of intracellular-like or intracellular-type solutions/media, whereas EC solution and culture media are representative of the class of extracellular-like or extracellular-type solutions/media. Other studies presented herein provide additional examples of intracellular- and extracellular-like solutions; other intracellular- and extracellular-like solutions are similarly useful and are known to those of skill in the art. FIG. 1 illustrates the results of an assessment of human endothelial cell survival following preservation. Monolayers of endothelial cells were frozen or vitrified and thawed in the indicated solutions (control, Uni, […], DP6, VS55, VS83, and […]). Following thawing, samples were diluted in culture media, placed into culture and assessed for viability at 1 day (24 hours) post-thaw and following seven (7) days of recovery using the Calcein-AM assay. […] The Uni and U10 conditions provided outcomes exceeding that of the VS55, VS83 and […] conditions. Therefore, subsequent studies (see, e.g., FIG. 2) focused on Unisol-based solutions with various CPAs and concentrations, in addition to the DP6 commercial cryopreservation solution. […] Monolayers of endothelial cells were frozen or vitrified and thawed in the indicated solutions. […] For pre-freeze (PF), post-warming (PW) and pre/post (P/P) conditioning studies, molecular modulation agents targeting inhibition of apoptosis (Caspase inhibitor IV, 8, 9 and a combination of Caspases 8 and 9), reduction of free-radical damage (resveratrol and NAC), and activation of the unfolded protein response (salubrinal) were employed as supplements in the media 1 hour prior to freezing (pre-freeze condition) or for 1 day following thawing and CPA removal from frozen samples (post-warming condition). Based on outcomes in the studies in Example 1, PF, PW and P/P conditioning were examined in Examples 2-3 using a series of Unisol-based solutions (Uni, U5, U10, U20, UG10, U5G10 and U10G10). […] Patent Application Publication No. US 2016/0097583 A1 (Ser. No. 14/876,087), which is incorporated by reference in its entirety as though fully set forth herein. The freeze and thaw process was slightly modified relative to the disclosure of U.S. Patent Application Publication No. US 2016/0097583 A1 by the addition of a 0.090 inch aluminum plate inserted into the bottom of the 96 well plate to aid in increasing cooling and heating uniformity throughout the plate, thereby reducing the well-to-well variability within the samples. The device was used to thaw the samples, which were frozen in situ in monolayers in standard 96-well tissue culture plates. […] A mitochondrial-mediated apoptotic inhibitor (Caspase 9) and a membrane-mediated apoptotic inhibitor (Caspase 8) were investigated to evaluate the involvement and impact of modulation of various apoptotic induction pathways. Additionally, a pan-Caspase inhibitor (Cas IV) was also investigated to assess the impact of global pathway modulation. As with the viability studies, cell survival and repopulation were assessed using Calcein-AM assays and analyzed using fluorescent microscopy (Zeiss). Survival was determined at 24 hours post-thaw to allow for the manifestation of any delayed onset cell death pathways to be executed. Further, cell recovery was included to evaluate the long term potency and repopulation potential of the various samples. […]

Assay [1] has as its system human smooth muscle cells. Briefly: Human smooth muscle cell monolayer survival and repopulation following cryopreservation (Calcein-AM assay). The format is cell-based. The protocol:
(§1) The device was used to thaw the samples, which were frozen in situ in monolayers in standard 96-well tissue culture plates. Samples were thawed from less than −170° C. to about 4° C. in the 96-well plate format in about 5 mins in a dry clean (“sterile”) environment.
The study described in example 3.1 focuses on the collection of cell survival data and the impact of post-thaw conditioning on human smooth muscle cells (SMCs). Specific activities included application of the high throughput monolayer sample cryopreservation protocol and collection of data (survival and cell death) from samples frozen using 6 unique cryopreservation solutions (U5, U10, U20, U5G10, U10G10, DP6) and 6 unique modulators (resveratrol, salubrinal, caspase inhibitors (IV, 8, 9) and NAC). Survival was determined at 24 hours post-thaw to allow for the manifestation of any delayed onset cell death pathways to be executed. Further, cell recovery was included to evaluate the long term potency and repopulation potential of the various samples.
A series of experiments was conducted to evaluate the performance of several solutions (U5, U10, U20, U5G10, U10G10 and DP6) as well as the impact of pre-freeze (PF) and post-warming (PW) conditioning with the apoptotic inhibitors Caspase 8, Caspase 9 and Caspase IV inhibitors. Cell samples were processed using the monolayer CP protocol and analyzed following 24 hours to 7 days post thaw for survival and recovery. These experiments were conducted to evaluate the impact of molecular modulators (inhibitors) during pre-freeze or post-thaw recovery on cell survival when added to the media 1 hour prior to or 24 hour following cryopreservation. […] To this end, samples were probed with Calcein-AM, incubated for 30 mins in the dark and then imaged using a Zeiss Axiovert 200 fluorescence microscope and Axiovision software. Images were taken at 24 hours to 7 days post-thaw to allow for assessment of solution and post-thaw conditioning agent performance.
As in previous experiments, the 24 hour time point was used for initial survival assessment, as this time point allows for the manifestation of molecular based cell stress-induced death. This provides a more accurate measure of survival than 0 or 1 hour post-thaw assessment, as is typically used. The 3 day time point was selected to assess re-population potential of any surviving cells as an indicator of long term potency.
For smooth muscle cell pre-freeze (PF) conditioning studies, 1 hour prior to CP addition, culture media was decanted and 100 μL of fresh media supplemented with caspase 8, 9, or IV was added to each respective well. Samples were then incubated at 37° C. for 1 hour, followed by media removal and addition of 100 μL of CP solution to samples followed by cryopreservation as described above. Following preservation, samples were thawed, diluted, and placed into culture. Following 24 hours recovery, cell viability was assessed.
For smooth muscle cell post-warming (PW) conditioning studies, following thawing and cryopreservation, CP solution was removed or diluted with culture media supplemented with caspase 8, 9, or IV. FIG. 18 illustrates the impact of apoptotic inhibition post-freeze conditioning on human smooth muscle cell survival 1 day following cryopreservation with and without reduced CPA.
For P/P conditioning studies, 1 hour prior to CP addition, culture media was decanted and 100 μL of fresh media supplement with caspase 8, 9, or IV was added to each respective well.

For assay [2], the system named is endothelial and smooth muscle cells. Nature of the assay: Summary of Examples 2-3: post-thaw survival of endothelial and smooth muscle cells (Calcein-AM assay). It counts as cell-based, human. How it is done: For pre-freeze (PF), post-warming (PW) and pre/post (P/P) conditioning studies, molecular modulation agents targeting inhibition of apoptosis (Caspase inhibitor IV, 8, 9 and a combination of Caspases 8 and 9), reduction of free-radical damage (resveratrol and NAC), and activation of the unfolded protein response (salubrinal) were employed as supplements in the media 1 hour prior to freezing (pre-freeze condition) or for 1 day following thawing and CPA removal from frozen samples (post-warming condition).
as §1
The P/P regime was followed by PW using Caspase 8 inhibition or NAC inhibition.

The test system of assay [3] is human hematopoietic stem cells (hHSC). Nature of the assay: Human hematopoietic stem cell survival following cryopreservation (Calcein-AM assay). It counts as cell-based. The note with it: cryopreserved in DMSO 10%. The protocol: The studies described in example 4 focus on the collection of cell survival data and the impact of post-thaw conditioning on human stem cells (hHSCs). Specific activities included standard cryopreservation protocol and collection of data (survival and cell death) from samples frozen using 6 unique cryopreservation solutions (Media, M5, M10, Unisol, U5 and U10) and 4 unique modulators (resveratrol (OSI), salubrinal (UPRI), caspase inhibitor (AI) and NAC). Survival was determined at 24 hours post-thaw to allow for the manifestation of any delayed onset cell death pathways to be executed. […]
A series of experiments was conducted to evaluate the performance of several solutions (media, M5, M10, Unisol, U5, and U10) as well as the impact of post-warming (PW) conditioning with the molecular modulators. Cell samples were processed using a standard controlled rate cooling suspension protocol and analyzed following 24 hours to 7 days post thaw for survival and recovery. […] To this end, samples were probed with Calcein-AM, incubated for 30 mins in the dark and then imaged using a Zeiss Axiovert 200 fluorescence microscope and Axiovision software. […]
For hHSC post-warming (PW) conditioning studies, following thawing each sample was diluted with culture media supplemented with the respective molecular modulator added to the dilution media. Samples were incubated in culture for 24 hours, then assessed. […]

[4] abbreviates: PF and PW caspase inhibitor conditioning, U10G10 solution.
Where [5] appears, read: PF conditioning, U10, U20, U5G10 and U10G10.
Where [6] appears, read: P/P conditioning, vs non-conditioned samples.

Structures are written as SMILES. “Also recorded” adds a separate entry of the source. Where a SMILES comes first, the peptide text is derived from it. The star is where a group is joined. Cbz = O=C(OCc1ccccc1)*; CH2F = FC*

In the case of `CC[C@H](C)[C@H](NC(=O)OCc1ccccc1)C(=O)N[C@@H](CCC(=O)OC)C(=O)N[C@H](C(=O)N[C@@H](CC(=O)OC)C(=O)CF)[C@@H](C)O` [Caspase 8 inhibitor] (Cbz-IE(OMe)TD(OMe)-CH2F), the “day 1 cell survival / post-thaw viability” value in the assay with human endothelial cells (P/P caspase inhibitor conditioning, Unisol+CPA samples vs non-treated matched samples) is given as “improvement in cell survival”. Also, the “cell repopulation / day 3 recovery” value was “most beneficial; also recorded: marked improvement in all solutions in day 3 recovery” in the assay on human endothelial cells (P/P caspase inhibitor conditioning, Unisol+CPA solutions and DP6); “marked improvement in day 3 recovery” in assay [1] (P/P caspase inhibitor conditioning, Unisol+CPA conditions and DP6). Also, the “cell recovery and repopulation (overall)” value in the assay with human endothelial cells (setting [4]) is “improvement in cell recovery and repopulation”. The “recovery at 3 days post-thaw” value is “improvement in recovery” in the assay with human endothelial cells (PF caspase inhibitor conditioning, Unisol+CPA conditions) and “complete recovery of the samples to pre-freeze controls” in assay [1] (PW caspase inhibitor conditioning). In the assay with human endothelial cells (PW caspase inhibitor conditioning, U10, U20 and U5G10 vs non-treated), the “day 3 recovery” value was “marked improvement in day 3 recovery”. Also, the “cell recovery 3 days post-thaw” value with human endothelial cells (PW caspase inhibitor conditioning, Unisol+CPA conditions) is “improvement in cell recovery”. Also, the “day 1 cell survival” value in the assay with human endothelial cells (post-warming (PW) caspase inhibitor conditioning 24 hours, Unisol+CPA solutions, vs non-treated matched samples) is listed as “overall increase in cell survival”; in the assay on human endothelial cells (post-warming (PW) caspase inhibitor conditioning 24 hours, Unisol+CPA solutions, vs non-treated matched samples, listed as Caspase 8), “slight improvement in cell survival”; in assay [1] (PW caspase inhibitor conditioning, Unisol+CPA solutions), “slight increase in cell survival”. Also, in the assay on human endothelial cells (pre/post (P/P) caspase inhibitor conditioning, U10G10 solution, day 1), the cell survival is about 90%. Moreover, the “increase over non-treated U10G10 samples” value in assay [1] (P/P caspase inhibitor conditioning, U10G10, day 1 survival) is about 50%. Further, the “day 1 survival, % of controls” value was about 60% in assay [1] (P/P caspase inhibitor conditioning, U10G10, listed as Caspase 8); “about 70%” in assay [1] (P/P caspase inhibitor conditioning, U10G10, listed as caspase 8); about 70% in assay [1] (P/P caspase inhibitor conditioning, U10G10, listed as caspase 8 inhibitor). Further, the “smooth muscle cell recovery and repopulation (overall)” value in assay [1] (setting [4]) was “improvement in smooth muscle cell recovery and repopulation”. In addition, the “day 1 post-thaw cell survival and cell recovery” value in assay [2] (PF, PW and P/P conditioning, Unisol based solutions) is reported as “improved”. Besides, the “increase in cell survival over non-treated samples” value in assay [2] (PW conditioning) is about 50%. Further, the “increase in survival over non-treated samples” value in assay [2] (U10G10, P/P conditioning, day 1) is on record as over 2 fold.
For `C[S+](C)[O-]` [DMSO, dimethyl sulfoxide], the cell loss rates result in assay [3] is “greater than 50%”.
Consider `Oc1ccc(C=Cc2cc(O)cc(O)c2)cc1` [resveratrol], for which the post-thaw viability result with human endothelial cells is given as “increase in post-thaw viability”. Besides, the “day 1 survival increase over non-treated samples” value in the assay with human endothelial cells (PF conditioning 1 hour) and with human endothelial cells (PW conditioning 24 hours) was about 2 fold in each case. For the same compound, the entries for the “day 1 cell survival” value (with human endothelial cells (setting [5]); in assay [1] (setting [6])) were “Improvement” and “slight to no improvement in cell survival”, respectively.
As for `O=C(/C=C/c1ccccc1)NC(NC(=S)Nc1cccc2cccnc12)C(Cl)(Cl)Cl` (stereo not drawn) [salubrinal], the post-thaw viability result in the assay with human endothelial cells is “increase in post-thaw viability”. In addition, the “day 1 cell survival” value is on record as “Improvement” with human endothelial cells (setting [5]); “slight to no improvement in cell survival” in assay [1] (setting [6]); “minimal benefit” in assay [1] (PW conditioning, vs non-treated matched samples).

(Values after patent US20180368393A1, “PRE- AND POST-STORAGE STRESS RESPONSE CONDITIONING” (CPSI HOLDINGS LLC, priority 2017, published 2018).)
